Assay results as given in patent US20100120715A1, “BETA-LACTAMASE INHIBITORS” (priority 2007, published 2010).
pIC50: −log10 of the molar value. Like-named read-outs stand apart in the source and are kept apart here.

What was measured:
[1] = molecular target: T1, Class A ESBL CTXM-15 (Escherichia coli, UniProt Q9EXV5); assay: β-lactamase enzyme inhibition (nitrocefin hydrolysis), CTXM-15; format: biochemical; conditions: purified enzyme; nitrocefin 100 μM, PBS pH 7.0; read-out: CTXM-15 IC50 Range
T1 construct: made in house; host or cells: E. coli BL21(DE3)
T1 sequence (Q9EXV5 entry or part of it): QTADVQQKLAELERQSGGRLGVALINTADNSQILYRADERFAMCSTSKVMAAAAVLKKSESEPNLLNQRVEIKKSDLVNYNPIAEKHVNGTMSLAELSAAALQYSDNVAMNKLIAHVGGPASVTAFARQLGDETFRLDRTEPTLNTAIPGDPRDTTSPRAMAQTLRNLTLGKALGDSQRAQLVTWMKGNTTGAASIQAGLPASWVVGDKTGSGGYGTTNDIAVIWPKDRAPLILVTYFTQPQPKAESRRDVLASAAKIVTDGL
Protocol: (§1) Isolation of β-lactamases. For all examples, purified beta-lactamase enzymes were used to measure a compounds' ability to inhibit the Class A ESBL CTXM-15, the Class C P99 AmpC and the Class A carbapenemase KPC-2. […] The enzyme preparations are described herein.
(§2) For the isolation and purification of SHV-5, p99 AmpC, KPC-2 and CTX-M15 β-lactamases, E. coli BL21(DE3) bacterial cells carrying expression plasmids (expressed as native untagged proteins) for the individual β-lactamases were grown in 1 L of Superbroth (Teknova Inc. Hollister, Calif.) supplemented with 100 μg/ml kanamycin and 1×5052 (0.5% glycerol, 0.05% glucose and 0.2% α-lactose) at 35° C. for 18-20 hours. Cells were harvested by centrifugation (4,000×g, 4° C., 20 min), and resuspended in 50 ml of 10 mM HEPES pH 7.5 ( 1/20 of the initial volume). The cells were lysed by sonication (5 pulses of 45 seconds) at 45 W on ice. The lysates were clarified by centrifugation at 10,000×g for 40 minutes at 4° C. Samples were diluted 5-fold in 50 mM sodium acetate pH 5.0, stored overnight at 4° C., after which they were centrifuged at 10,000×g for 30 minutes to clarify, and filtered through 0.45 μm filters. The samples were loaded onto a 5 ml Capto S sepharose cation exchange column (GE Healthcare) pre-equilibrated with 50 mM sodium acetate pH 5.0. The column was washed with 5 column volumes of 50 mM sodium acetate pH 5.0 to wash out unbound protein and a linear gradient of NaCl (0 to 500 mM) was used to elute the protein (over 16 CV) from the column. Fractions were assayed for β-lactamase activity using Centa (Calbiochem, Gibbstown, N.J.) as a reporter β-lactamase substrate for activity in the isolated fractions. Active fractions were pooled, concentrated and further purified by gel filtration chromatography on a Superdex 75 prep grade gel filtration column (GE Healthcare, Piscataway, N.J.) pre-equilibrated in 50 mM Hepes pH 7.5, 150 mM NaCl. Active fractions were pooled concentrated, quantitated by BCA protein determination (Thermo Scientific, Rockford, Ill.), and frozen at −80° C. in 20% glycerol until use.
(§3) β-lactamase Inhibition. To determine the level of inhibition of β-lactamaseenzymes, compounds were diluted in PBS at pH 7.0 to yield concentrations between 100 and 0.005 μM in microtiter plates. An equal volume of diluted enzyme stock was added, and the plates were incubated at 37° C. for 10 min. Nitrocefin solution was then dispensed as substrate into each well at a final concentration of 100 μM, and the plates were immediately read with the kinetic program at 486 nm for 10 min on the SPECTRAMAX® Plus^384 (high-throughput microplate spectrophotometer; Molecular Devices Corp., Sunnyvale, Calif.). Maximum rates of metabolism were then compared to those in control wells (without inhibitors), and percentages of enzyme inhibition were calculated for each concentration of inhibitor. The concentration of inhibitor needed to reduce the initial rate of hydrolysis of substrate by 50% (IC50) was calculated as the residual activity of β-lactamase at 486 nm using the SoftMax Pro 5.0 software (Molecular Devices Corp.).

[2] = system: K. pneumoniae expressing the Class A carbapenemase KPC-2; assay: microbe, parasite or virus in culture; conditions: in the presence of fixed 8 μg/mL Ceftazidime
Excerpt: (§4) To determine the ability of test compounds to potentiate the inhibition of the growth of bacterial strains producing beta-lactamase enzymes, classic cell based screening assays were employed. Four bacteria strains producing beta-lactamase enzymes were used: K. pneumoniae expressing the Class A Extended Spectrum Beta-Lactamase (ESBL) CTX-M-15, E. coli expressing the Class A ESBL SHV-5, E. cloacae expressing the Class C P99+, and K. pneumoniae expressing the Class A carbapenemase KPC-2. In order to evaluate the ability of test compounds to inhibit beta-lactamase activity, Applicants used a modification of the broth microdilution assay. The assay was conducted in Cation Adjusted Mueller Hinton Broth (CAMHB, BD # 212322, BD Diagnostic Systems, Sparks, Md.). Bacteria strains were grown for 3-5 hours in CAMBH broth. All four strains were grown in presence of 50 μg/mL ampicillin to ensure resistance is maintained. In the meantime, test compounds were diluted in DMSO to a 0.1 mg/mL stock. The compounds were added to a microtiter plate and were diluted in 2-fold serial dilutions in CAMHB in a final concentration range of 8 μg/mL to 0.015 μg/ml. An overlay of CAMHB containing a cephalosporin was added to the compounds at a final static concentration of 8 μg/ml. […] Each of these compound plates are made in quadruplicate, one for each bacteria strain. In addition to the titration of test compounds the MICs of a panel of cephalosporins is also tested to ensure the strains are behaving consistently from test to test. Once the test compound and cephalosporin are added the plates can be inoculated. Inocula are conducted according to CLSI broth microdilution method. After inoculation the plates are incubated for 16-20 hours at 37° C. then the Minimal Inhibitory Concentration (MIC) of the test compound is determined visually.

[3] = molecular target: T2, Class A ESBL SHV-5 (Klebsiella pneumoniae, UniProt P0A3M1); format: biochemical, E. coli; conditions: nitrocefin 100 μM, PBS pH 7.0, read-out: SHV-5 IC50 Range
T2 construct: made in house; host or cells: E. coli BL21(DE3) for purified enzyme; E. coli cells containing SHV-5 for extracts
T2 sequence (P0A3M1 22-286): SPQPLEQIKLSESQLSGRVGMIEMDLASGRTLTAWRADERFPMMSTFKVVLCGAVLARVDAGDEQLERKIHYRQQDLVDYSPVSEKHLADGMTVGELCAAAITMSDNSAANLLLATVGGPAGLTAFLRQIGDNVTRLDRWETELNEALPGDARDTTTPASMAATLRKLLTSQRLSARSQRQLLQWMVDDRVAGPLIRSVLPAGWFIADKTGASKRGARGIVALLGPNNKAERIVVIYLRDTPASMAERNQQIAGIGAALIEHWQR
Protocol: as §1
For the preparation of SHV-5 extracts, E. coli cells containing SHV-5 were cultured overnight with shaking at a volume of 20 mL. They were further diluted 10-fold and grown to mid-log phase (OD at 600 nm, 0.5-0.8) in Mueller-Hinton II (MH-II) broth at 37° C. The cells were pelleted at 5000 g, washed and resuspended in 2 mL PBS pH 7.0. The β-lactamase was extracted by four cycles of freezing and thawing followed by centrifugation. β-lactamase activity in the extract was measured with the chromogenic cephalosporin nitrocefin. The amount of protein in each β-lactamase preparation was determined by the bicinchoninic acid (BCA) assay.
as §2, §3

[4] = molecular target: T3, Class C P99 AmpC (Enterobacter cloacae, UniProt P05364); format: biochemical; conditions: purified enzyme; nitrocefin 100 μM, PBS pH 7.0; read-out: P99 AmpC IC50 Range
T3 construct: made in house; host or cells: E. coli BL21(DE3)
T3 sequence (P05364 21-381): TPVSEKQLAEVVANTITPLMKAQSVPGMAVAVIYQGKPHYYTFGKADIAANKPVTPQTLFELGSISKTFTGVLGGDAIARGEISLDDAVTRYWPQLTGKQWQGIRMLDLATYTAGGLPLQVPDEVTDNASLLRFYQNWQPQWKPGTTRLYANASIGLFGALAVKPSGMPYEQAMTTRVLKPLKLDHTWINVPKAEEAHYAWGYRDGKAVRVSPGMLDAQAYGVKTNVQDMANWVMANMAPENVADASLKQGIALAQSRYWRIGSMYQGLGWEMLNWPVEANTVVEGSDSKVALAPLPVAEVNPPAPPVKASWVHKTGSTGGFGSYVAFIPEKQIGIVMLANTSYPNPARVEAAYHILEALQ
Protocol: as §1, §2, §3

[5] = molecular target: T4, Class A carbapenemase KPC-2 (Klebsiella pneumoniae, UniProt Q9F663); assay: β-lactamase enzyme inhibition (nitrocefin hydrolysis), KPC-2; format: biochemical; conditions: purified enzyme; nitrocefin 100 μM, PBS pH 7.0; read-out: KPC-2 IC50 Range
T4 construct: made in house; host or cells: E. coli BL21(DE3)
T4 sequence (Q9F663 25-293 limits assumed): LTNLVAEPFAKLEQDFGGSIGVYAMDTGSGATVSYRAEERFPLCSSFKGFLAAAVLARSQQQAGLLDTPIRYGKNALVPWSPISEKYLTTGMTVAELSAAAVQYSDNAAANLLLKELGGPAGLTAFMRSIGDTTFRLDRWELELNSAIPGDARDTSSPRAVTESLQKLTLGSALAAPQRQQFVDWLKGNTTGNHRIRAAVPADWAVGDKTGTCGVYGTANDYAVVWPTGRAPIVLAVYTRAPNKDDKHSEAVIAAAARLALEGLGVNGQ
Protocol: as §1, §2, §3

[6] = system: K. pneumoniae expressing the Class A ESBL CTX-M-15; assay: microbe, parasite or virus in culture; format: cell-based; conditions: in the presence of fixed 8 μg/mL Ceftazidime
Excerpt: as §4, with “An overlay of CAMHB containing a cephalosporin was added to the compounds at a final static concentration of 8 μg/ml.” left out

[7] = purified beta-lactamase enzyme (Examples 1 and 31-64)
[8] = cellular extracts of E. coli containing SHV-5 (Examples 2-30)

SMILES	pIC50 [1]	MIC of example compound, K. pneumoniae KPC-2 + 8 μg/mL CAZ [2]	pIC50 [3, 7]	pIC50 [4]	pIC50 [5]	pIC50 [3, 8]	MIC of example compound, K. pneumoniae CTX-M-15 + 8 μg/mL CAZ [6]
COc1ccc(C(=O)N[C@@H](Cc2cccc(C(=O)O)c2O)B(O)O)cc1 [Example 33, (1R)-1-(4-Methoxybenzoyl)-amino-1-(3-carboxy-2-hydroxy)benzyl-methylboronic acid]	> 8.00	C (C represents an MIC of <1 μg/mL)	6.00 to 7.00	> 8.00	> 8.00	–	–
O=C(O)c1cccc(C[C@H](NC(=O)c2cccc3ccccc23)B(O)O)c1O [Example 27, (1R)-1-(1-naphthoylamino)-2-(2-hydroxy-3-carboxyphenyl)ethyl-1-boronic acid]	> 8.00	C (C represents an MIC of <1 μg/mL)	–	> 8.00	> 8.00	7.00 to 8.00	–
O=C(N[C@@H](Cc1cccc(C(=O)O)c1O)B(O)O)c1cccc(-n2ccnc2)c1 [Example 57, (1R)-1-(3-Imidazol-1-yl-benzoylaminoamino)-2-(2-hydroxy-3-carboxyphenyl)ethyl-1-boronic acid]	> 8.00	C (C represents an MIC of <1 μg/mL)	> 8.00	> 8.00	> 8.00	–	–
O=C(N[C@@H](Cc1cccc(C(=O)O)c1O)B(O)O)c1cnccn1 [Example 58, (1R)-1-(Pyrazine-2-carbonyl-amino)-2-(2-hydroxy-3-carboxyphenyl)ethyl-1-boronic acid]	> 8.00	C (C represents an MIC of <1 μg/mL)	7.00 to 8.00	7.00 to 8.00	> 8.00	–	–
O=C(N[C@@H](Cc1cccc(C(=O)O)c1O)B(O)O)c1ccccc1O [Example 35, (1R)-1-(2-hydroxybenzoylamino)-2-(2-hydroxy-3-carboxyphenyl)ethyl-1-boronic acid]	> 8.00	C (C represents an MIC of <1 μg/mL)	7.00 to 8.00	> 8.00	7.00 to 8.00	–	–
O=C(Cc1cccc(O)c1)N[C@@H](Cc1cccc(C(=O)O)c1O)B(O)O [Example 3, (1R)-1-(3-hydroxy-phenyl)acetylamino-1-(3-carboxy-2-hydroxy)benzyl-methyl boronic acid]	> 8.00	C (C represents an MIC of <1 μg/mL)	–	> 8.00	–	> 8.00	C (C represents an MIC of <1 μg/mL)
O=C(N[C@@H](Cc1cccc(C(=O)O)c1O)B(O)O)c1ccc(Cl)cc1 [Example 32, (1R)-1-(4-Chloro-benzoyl)-amino-1-(3-carboxy-2-hydroxy)benzyl-methylboronic acid]	> 8.00	C (C represents an MIC of <1 μg/mL)	7.00 to 8.00	> 8.00	> 8.00	–	–
O=C(N[C@@H](Cc1cccc(C(=O)O)c1O)B(O)O)c1ccncc1 [Example 55, (1R)-1-(Pyridine-4-carbonyl-amino)-2-(2-hydroxy-3-carboxyphenyl)ethyl-1-boronic acid]	> 8.00	–	7.00 to 8.00	> 8.00	> 8.00	–	–
O=C(CN1C(=O)c2ccccc2C1=O)N[C@@H](Cc1cccc(C(=O)O)c1O)B(O)O [Example 45, (1R)-1-(2-(1,3-dioxoisoindolin-2-yl)acetylamino)-2-(2-hydroxy-3-carboxyphenyl)ethyl-1-boronic acid]	> 8.00	C (C represents an MIC of <1 μg/mL)	> 8.00	> 8.00	> 8.00	–	–
CC(=O)Nc1nc(CC(=O)N[C@@H](Cc2cccc(C(=O)O)c2O)B(O)O)cs1 [Example 63, (1R)-1-((2-Acetylamino-thiazol-4-yl)-acetylamino)-2-(2-hydroxy-3-carboxyphenyl)ethyl-1-boronic acid]	> 8.00	C (C represents an MIC of <1 μg/mL)	> 8.00	> 8.00	> 8.00	–	–
Cc1ccccc1C(=O)N[C@@H](Cc1cccc(C(=O)O)c1O)B(O)O [Example 30, (1R)-1-(2-methylbenzoylamino)-2-(2-hydroxy-3-carboxyphenyl)ethyl-1-boronic acid]	> 8.00	C (C represents an MIC of <1 μg/mL)	–	> 8.00	> 8.00	7.00 to 8.00	–
